Experimental data taken from ChEMBL document CHEMBL3132769, “Fragment growing to retain or alter the selectivity of anchored kinase hinge-binding fragments” (Medchemcomm, 2014).

How the values were obtained:
Homo sapiens = species on record: Homo sapiens; test: Inhibition of human P70S6K catalytic domain expressed in baculovirus assessed as substrate phosphorylation using fluorescence-labelled peptides as substrate at 0.06 uM after 90 mins by microfluidic peptide phosphorylation assay
[1] = molecular target: Ribosomal protein S6 kinase alpha-2 (Homo sapiens) (UniProt Q15349); test: Inhibition of human full length RSK3 expressed in baculovirus assessed as substrate phosphorylation using fluorescence-labelled peptides as substrate at 0.06 uM after 90 mins by microfluidic peptide phosphorylation assay
Ribosomal protein S6 kinase alpha-2 (Homo sapiens), sequence (Q15349 whole entry, the tested form may be a part): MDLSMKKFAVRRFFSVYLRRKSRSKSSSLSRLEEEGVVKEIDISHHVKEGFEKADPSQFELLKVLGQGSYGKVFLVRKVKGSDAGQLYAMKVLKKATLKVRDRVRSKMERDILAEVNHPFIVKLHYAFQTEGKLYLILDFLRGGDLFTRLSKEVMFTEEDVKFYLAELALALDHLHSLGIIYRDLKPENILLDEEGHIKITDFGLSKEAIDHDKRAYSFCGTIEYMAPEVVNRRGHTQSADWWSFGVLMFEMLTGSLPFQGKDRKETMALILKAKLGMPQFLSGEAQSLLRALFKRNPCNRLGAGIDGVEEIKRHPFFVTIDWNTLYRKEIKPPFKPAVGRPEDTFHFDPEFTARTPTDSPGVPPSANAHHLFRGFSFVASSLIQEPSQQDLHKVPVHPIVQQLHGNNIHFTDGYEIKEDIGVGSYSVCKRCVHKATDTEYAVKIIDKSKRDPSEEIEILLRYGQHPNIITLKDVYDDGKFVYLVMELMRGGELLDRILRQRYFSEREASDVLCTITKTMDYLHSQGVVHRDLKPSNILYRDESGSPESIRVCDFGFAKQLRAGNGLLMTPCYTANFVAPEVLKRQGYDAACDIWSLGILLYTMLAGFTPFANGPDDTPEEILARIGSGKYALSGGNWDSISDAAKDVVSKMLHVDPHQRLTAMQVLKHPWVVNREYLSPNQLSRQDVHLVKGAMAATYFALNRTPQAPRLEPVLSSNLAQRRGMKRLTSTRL

[2] = molecular target: Protein kinase C theta type (Homo sapiens) (UniProt Q04759); test: Inhibition of human truncated PKC theta expressed in baculovirus assessed as substrate phosphorylation using fluorescence-labelled peptides as substrate at 0.2 uM after 90 mins by microfluidic peptide phosphorylation assay
Protein kinase C theta type (Homo sapiens), sequence (Q04759 whole entry, looked up, the tested form may be a part): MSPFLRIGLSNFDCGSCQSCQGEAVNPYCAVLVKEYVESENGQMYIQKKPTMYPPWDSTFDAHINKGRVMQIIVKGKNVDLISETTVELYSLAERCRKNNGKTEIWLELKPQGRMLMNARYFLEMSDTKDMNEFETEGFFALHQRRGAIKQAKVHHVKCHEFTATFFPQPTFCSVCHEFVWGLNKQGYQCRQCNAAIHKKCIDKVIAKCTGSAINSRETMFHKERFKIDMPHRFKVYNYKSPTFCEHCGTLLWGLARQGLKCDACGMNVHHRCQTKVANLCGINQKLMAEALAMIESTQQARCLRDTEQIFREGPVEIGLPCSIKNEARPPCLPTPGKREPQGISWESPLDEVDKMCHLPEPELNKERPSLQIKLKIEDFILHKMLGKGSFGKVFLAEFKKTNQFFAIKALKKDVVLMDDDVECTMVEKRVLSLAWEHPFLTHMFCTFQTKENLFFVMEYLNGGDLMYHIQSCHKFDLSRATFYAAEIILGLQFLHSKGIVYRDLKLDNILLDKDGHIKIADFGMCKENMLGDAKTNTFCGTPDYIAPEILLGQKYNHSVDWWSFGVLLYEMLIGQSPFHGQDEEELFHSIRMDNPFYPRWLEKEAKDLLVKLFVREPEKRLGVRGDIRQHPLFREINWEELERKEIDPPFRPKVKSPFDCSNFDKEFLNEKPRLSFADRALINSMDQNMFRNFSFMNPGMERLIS

[3] = molecular target: T1, Inhibitor of nuclear factor kappa-B kinase subunit beta (Homo sapiens) (UniProt O14920); test: Inhibition of human full length IKK beta expressed in baculovirus assessed as substrate phosphorylation using fluorescence-labelled peptides as substrate at 95 uM after 90 mins by microfluidic peptide phosphorylation assay
T1 sequence (whole entry): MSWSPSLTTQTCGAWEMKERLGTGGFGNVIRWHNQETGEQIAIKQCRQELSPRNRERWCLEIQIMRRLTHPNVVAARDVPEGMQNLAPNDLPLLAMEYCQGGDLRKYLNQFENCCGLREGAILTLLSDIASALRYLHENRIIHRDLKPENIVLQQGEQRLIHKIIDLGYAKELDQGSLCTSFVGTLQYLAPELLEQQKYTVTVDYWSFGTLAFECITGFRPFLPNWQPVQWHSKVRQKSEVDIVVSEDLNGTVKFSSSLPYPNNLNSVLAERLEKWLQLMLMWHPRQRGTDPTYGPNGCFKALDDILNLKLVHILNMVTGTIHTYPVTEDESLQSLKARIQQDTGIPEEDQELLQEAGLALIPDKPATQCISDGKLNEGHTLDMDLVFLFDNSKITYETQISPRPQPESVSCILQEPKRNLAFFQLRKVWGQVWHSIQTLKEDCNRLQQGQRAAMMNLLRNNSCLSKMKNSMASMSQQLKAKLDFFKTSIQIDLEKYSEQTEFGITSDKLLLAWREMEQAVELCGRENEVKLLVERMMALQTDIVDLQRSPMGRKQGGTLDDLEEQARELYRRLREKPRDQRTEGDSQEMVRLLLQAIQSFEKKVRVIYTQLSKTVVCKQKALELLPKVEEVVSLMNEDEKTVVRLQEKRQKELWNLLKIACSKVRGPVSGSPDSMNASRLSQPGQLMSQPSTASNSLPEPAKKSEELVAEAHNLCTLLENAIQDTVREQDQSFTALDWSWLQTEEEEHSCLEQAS

[4] = molecular target: Serine/threonine-protein kinase Chk2 (Homo sapiens) (UniProt O96017); test: Inhibition of human full length CHK2 expressed in baculovirus assessed as substrate phosphorylation using fluorescence-labelled peptides as substrate at 1000 uM after 90 mins by microfluidic peptide phosphorylation assay
Serine/threonine-protein kinase Chk2 (Homo sapiens), sequence (O96017 whole entry, the tested form may be a part): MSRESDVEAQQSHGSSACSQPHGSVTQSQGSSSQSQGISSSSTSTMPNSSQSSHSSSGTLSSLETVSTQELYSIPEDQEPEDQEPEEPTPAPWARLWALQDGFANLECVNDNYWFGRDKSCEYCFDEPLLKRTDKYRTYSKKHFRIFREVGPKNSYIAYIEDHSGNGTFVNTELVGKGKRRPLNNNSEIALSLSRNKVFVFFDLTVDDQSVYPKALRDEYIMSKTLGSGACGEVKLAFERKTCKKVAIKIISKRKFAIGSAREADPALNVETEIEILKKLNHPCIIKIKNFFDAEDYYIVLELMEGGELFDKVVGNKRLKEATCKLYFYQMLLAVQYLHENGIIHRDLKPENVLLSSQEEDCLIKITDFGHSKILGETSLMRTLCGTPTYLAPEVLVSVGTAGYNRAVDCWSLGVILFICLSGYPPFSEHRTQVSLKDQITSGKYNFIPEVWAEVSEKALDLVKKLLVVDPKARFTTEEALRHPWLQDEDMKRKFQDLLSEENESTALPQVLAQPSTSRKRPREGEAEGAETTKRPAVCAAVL

[5] = molecular target: Mitogen-activated protein kinase 14 (Homo sapiens) (UniProt Q16539); test: Inhibition of human truncated p38 alpha expressed in Escherichia coli cell assessed as substrate phosphorylation using fluorescence-labelled peptides as substrate at 70 uM after 90 mins by microfluidic peptide phosphorylation assay
Mitogen-activated protein kinase 14 (Homo sapiens), sequence (Q16539 whole entry, the tested form may be a part): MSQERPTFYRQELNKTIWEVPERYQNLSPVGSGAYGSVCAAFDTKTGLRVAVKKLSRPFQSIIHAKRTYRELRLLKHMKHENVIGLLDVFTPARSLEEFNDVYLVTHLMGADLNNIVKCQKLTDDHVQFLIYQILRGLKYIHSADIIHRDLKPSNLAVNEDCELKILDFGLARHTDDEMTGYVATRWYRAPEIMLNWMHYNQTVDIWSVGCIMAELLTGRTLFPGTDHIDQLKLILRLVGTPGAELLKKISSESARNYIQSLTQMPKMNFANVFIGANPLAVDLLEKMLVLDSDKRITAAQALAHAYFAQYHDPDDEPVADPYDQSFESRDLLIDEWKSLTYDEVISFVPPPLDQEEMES

[6] = molecular target: RAF proto-oncogene serine/threonine-protein kinase (Homo sapiens) (UniProt P04049); test: Inhibition of human truncated c-Raf expressed in baculovirus assessed as substrate phosphorylation using fluorescence-labelled peptides as substrate at 70 uM after 90 mins by microfluidic peptide phosphorylation assay
RAF proto-oncogene serine/threonine-protein kinase (Homo sapiens), sequence (P04049 whole entry, the tested form may be a part): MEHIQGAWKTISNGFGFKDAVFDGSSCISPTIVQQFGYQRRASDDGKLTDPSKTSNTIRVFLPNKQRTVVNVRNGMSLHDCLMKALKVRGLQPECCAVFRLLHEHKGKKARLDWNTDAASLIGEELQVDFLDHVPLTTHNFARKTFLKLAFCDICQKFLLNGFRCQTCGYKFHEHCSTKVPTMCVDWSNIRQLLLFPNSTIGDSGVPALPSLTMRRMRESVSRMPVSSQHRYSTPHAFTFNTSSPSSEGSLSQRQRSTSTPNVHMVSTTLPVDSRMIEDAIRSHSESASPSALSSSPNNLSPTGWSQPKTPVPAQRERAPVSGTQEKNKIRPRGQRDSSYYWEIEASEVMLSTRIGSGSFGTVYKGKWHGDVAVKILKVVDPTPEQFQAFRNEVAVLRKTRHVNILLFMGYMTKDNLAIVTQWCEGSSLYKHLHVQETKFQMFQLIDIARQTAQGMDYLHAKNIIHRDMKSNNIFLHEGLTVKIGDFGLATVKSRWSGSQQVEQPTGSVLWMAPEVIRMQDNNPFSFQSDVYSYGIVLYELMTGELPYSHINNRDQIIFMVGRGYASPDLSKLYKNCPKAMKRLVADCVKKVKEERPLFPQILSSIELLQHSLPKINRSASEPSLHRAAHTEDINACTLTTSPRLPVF

[7] = molecular target: T2, Protein kinase C epsilon type (Homo sapiens) (UniProt Q02156); test: Inhibition of human truncated PKC epsilon expressed in baculovirus assessed as substrate phosphorylation using fluorescence-labelled peptides as substrate at 70 uM after 90 mins by microfluidic peptide phosphorylation assay
T2 sequence (whole entry): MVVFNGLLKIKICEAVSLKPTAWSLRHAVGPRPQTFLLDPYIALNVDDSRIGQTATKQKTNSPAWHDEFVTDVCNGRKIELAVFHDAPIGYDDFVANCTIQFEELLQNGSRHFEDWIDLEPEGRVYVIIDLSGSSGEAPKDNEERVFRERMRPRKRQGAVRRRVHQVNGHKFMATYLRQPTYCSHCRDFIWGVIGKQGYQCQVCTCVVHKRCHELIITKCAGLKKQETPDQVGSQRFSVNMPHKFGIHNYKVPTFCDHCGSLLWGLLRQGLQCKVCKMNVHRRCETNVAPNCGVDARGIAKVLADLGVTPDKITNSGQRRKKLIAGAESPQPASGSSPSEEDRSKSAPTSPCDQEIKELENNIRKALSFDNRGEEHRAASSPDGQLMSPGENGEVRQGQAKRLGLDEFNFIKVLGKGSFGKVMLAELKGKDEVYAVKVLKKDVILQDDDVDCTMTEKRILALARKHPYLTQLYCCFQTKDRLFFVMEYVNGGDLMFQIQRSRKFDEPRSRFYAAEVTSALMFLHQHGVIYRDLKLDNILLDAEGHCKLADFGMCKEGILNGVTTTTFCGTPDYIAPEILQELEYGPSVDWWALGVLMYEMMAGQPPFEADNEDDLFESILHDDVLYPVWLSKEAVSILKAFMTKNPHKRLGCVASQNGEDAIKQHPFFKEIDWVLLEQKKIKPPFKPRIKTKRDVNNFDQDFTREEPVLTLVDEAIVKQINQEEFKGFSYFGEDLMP

[8] = molecular target: Mitogen-activated protein kinase kinase kinase kinase 4 (Homo sapiens) (UniProt O95819); test: Inhibition of human HGK catalytic domain expressed in baculovirus assessed as substrate phosphorylation using fluorescence-labelled peptides as substrate at 70 uM after 90 mins by microfluidic peptide phosphorylation assay
Mitogen-activated protein kinase kinase kinase kinase 4 (Homo sapiens), sequence (O95819 2-1239 limits assumed): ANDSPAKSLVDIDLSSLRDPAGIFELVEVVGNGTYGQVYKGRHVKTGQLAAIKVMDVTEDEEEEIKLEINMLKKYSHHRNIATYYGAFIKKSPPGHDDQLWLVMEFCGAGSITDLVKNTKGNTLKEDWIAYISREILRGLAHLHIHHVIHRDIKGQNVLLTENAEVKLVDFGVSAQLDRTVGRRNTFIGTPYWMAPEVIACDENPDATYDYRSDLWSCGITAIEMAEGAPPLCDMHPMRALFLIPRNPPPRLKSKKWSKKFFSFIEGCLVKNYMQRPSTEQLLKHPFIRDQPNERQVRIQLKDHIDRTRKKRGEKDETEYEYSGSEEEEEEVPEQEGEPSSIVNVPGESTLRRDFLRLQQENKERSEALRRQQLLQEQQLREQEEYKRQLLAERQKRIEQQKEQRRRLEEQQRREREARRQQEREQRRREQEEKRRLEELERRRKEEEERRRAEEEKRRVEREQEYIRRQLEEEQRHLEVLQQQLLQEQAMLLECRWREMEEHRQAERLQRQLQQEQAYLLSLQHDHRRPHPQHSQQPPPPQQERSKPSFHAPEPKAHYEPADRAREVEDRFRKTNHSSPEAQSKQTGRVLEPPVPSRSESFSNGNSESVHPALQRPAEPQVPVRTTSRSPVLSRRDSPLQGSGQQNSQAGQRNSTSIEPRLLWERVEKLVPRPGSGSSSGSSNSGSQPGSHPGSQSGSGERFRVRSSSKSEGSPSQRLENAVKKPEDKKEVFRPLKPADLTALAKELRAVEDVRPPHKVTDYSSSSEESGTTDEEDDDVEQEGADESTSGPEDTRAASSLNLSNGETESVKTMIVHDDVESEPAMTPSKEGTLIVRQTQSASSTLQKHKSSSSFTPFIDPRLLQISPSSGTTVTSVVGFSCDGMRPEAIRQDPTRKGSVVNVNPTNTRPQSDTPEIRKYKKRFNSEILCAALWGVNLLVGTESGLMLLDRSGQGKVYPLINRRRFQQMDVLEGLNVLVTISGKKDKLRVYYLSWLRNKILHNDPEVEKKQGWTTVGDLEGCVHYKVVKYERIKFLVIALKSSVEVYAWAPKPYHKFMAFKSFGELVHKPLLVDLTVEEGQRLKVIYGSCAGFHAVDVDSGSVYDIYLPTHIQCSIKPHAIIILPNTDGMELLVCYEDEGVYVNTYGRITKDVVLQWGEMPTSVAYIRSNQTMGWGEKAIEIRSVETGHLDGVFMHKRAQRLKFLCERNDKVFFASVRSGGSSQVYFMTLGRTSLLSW

[9] = molecular target: T3, Testis-specific serine/threonine-protein kinase 2 (Homo sapiens) (UniProt Q96PF2); test: Inhibition of human full length TSSK2 expressed in baculovirus assessed as substrate phosphorylation using fluorescence-labelled peptides as substrate at 420 uM after 90 mins by microfluidic peptide phosphorylation assay
T3 sequence (whole entry): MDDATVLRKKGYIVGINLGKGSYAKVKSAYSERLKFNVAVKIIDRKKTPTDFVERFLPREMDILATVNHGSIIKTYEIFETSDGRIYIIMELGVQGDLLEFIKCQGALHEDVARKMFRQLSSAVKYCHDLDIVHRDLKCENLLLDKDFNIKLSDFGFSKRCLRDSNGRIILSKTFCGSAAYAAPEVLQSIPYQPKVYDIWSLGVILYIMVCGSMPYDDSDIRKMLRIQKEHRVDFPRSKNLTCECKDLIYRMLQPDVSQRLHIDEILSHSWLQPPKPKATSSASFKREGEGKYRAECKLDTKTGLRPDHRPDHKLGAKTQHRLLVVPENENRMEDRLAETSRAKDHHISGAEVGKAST

[10] = molecular target: Protein kinase C theta type (Homo sapiens) (UniProt Q04759); test: Inhibition of human truncated PKC theta expressed in baculovirus assessed as substrate phosphorylation using fluorescence-labelled peptides as substrate at 420 uM after 90 mins by microfluidic peptide phosphorylation assay
[11] = molecular target: Proto-oncogene tyrosine-protein kinase Src (Homo sapiens) (UniProt P12931); test: Inhibition of human full length SRC expressed in baculovirus assessed as substrate phosphorylation using fluorescence-labelled peptides as substrate at 420 uM after 90 mins by microfluidic peptide phosphorylation assay
Proto-oncogene tyrosine-protein kinase Src (Homo sapiens), sequence (P12931 2-536 limits assumed): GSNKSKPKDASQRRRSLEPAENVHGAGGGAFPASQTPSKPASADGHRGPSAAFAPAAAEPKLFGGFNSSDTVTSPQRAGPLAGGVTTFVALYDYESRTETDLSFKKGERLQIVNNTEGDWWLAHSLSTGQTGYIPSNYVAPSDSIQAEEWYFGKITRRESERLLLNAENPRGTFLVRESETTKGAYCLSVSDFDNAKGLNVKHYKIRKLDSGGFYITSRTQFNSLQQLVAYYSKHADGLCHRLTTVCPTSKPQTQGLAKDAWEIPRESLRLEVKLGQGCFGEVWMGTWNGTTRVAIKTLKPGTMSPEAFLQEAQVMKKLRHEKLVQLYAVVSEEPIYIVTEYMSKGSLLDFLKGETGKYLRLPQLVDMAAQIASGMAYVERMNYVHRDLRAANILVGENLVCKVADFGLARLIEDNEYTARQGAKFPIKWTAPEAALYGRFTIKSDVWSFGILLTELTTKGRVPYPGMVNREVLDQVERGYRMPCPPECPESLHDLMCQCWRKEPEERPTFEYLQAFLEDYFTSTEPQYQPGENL

## NC1(Cc2ccc(Cl)cc2)CCN(c2ncnc3[nH]ccc23)CC1
Homo sapiens
  inhibition: 0%
[1]
  inhibition: 0%

## Clc1ccc(C2(c3ccc(-c4ncnc5[nH]cnc45)cc3)CCNCC2)cc1
[2]
  inhibition: 31.5%

## NCCc1ccc(-c2ncnc3[nH]cnc23)cc1
[3]
  inhibition: 91%

## c1cnc2[nH]ccc2c1
[4]
  inhibition: 74%

## CNCc1ccc(-c2ncnc3[nH]cnc23)cc1
[5]
  inhibition: 0%
[6]
  inhibition: 39.5%
[7]
  inhibition: 44%
[8]
  inhibition: 42%

## c1nc(N2CCOCC2)c2nc[nH]c2n1
[9]
  inhibition: 24.5%
[10]
  inhibition: 67.5%
[11]
  inhibition: 62.5%
